Consider ten compounds from US20230265116A1, “DEGRADATION OF (EGFR) BY CONJUGATION OF EGFR INHIBITORS WITH E3 LIGASE LIGAND AND METHODS OF USE” (BEIGENE, LTD., priority 2020, published 2023).

Test [1] concerns the target T1, EGFR L858R/T790M/C797S (BaF3-LTC cells) (Homo sapiens, UniProt P00533, C797S/L858R/T790M).
T1 construct: expressed in transfected cells; host or cells: BaF3
In words: EGFR degradation HTRF assay, BaF3-LTC cells. It counts as cell-based. A digest of the protocol: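 EGFR remaining after a 16 h, 37 °C exposure (8 doses, 5-fold steps from 10 uM final, 0.2% DMSO) was quantified by HTRF antibodies in cell lysate. Percent inhibition relative to DMSO control was fitted by four-parameter logistic to give DC50; Dmax denotes maximal degradation.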
Background: TR-FRET usually uses a lanthanide donor and a delayed reading to cut background.

The subject of test [2] is EGFR Del19/T790M/C797S (H1975-clone #28). Briefly: EGFR degradation HTRF assay, H1975-clone #28 DTC cells. It counts as cell-based. The gist of the method: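 Read-out is an HTRF EGFR signal (337 nm excitation, 665/620 nm) from lysates of mutant-EGFR H1975 clones in which only the exogenous EGFR survives knockout. Treatment ran 16h at 37° C. from 10 uM final downward in 5-fold steps. DC50 comes from a logistic fit and Dmax is the maximal degradation.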

Where [3] appears, read: BaF3-LTC cells; EGFR degradation, IC50 (DC50) from curve fit; read-out: DC50(nM) BaF3-LTC.
Setting [4] is: BaF3-LTC cells; maximum percentage of inhibition (degradation); read-out: Dmax (%) BaF3-LTC.
Where [5] appears, read: H1975 # 28 DTC cells; EGFR degradation, IC50 (DC50) from curve fit; read-out: DC50(nM) H1975 # 28 DTC.
The mark [6] stands for this setting: H1975 # 28 DTC cells; maximum percentage of inhibition (degradation).

Like-named read-outs stand apart in the source and are kept apart here.

T1 sequence (P00533 25-1210 T790M/C797S/L858R): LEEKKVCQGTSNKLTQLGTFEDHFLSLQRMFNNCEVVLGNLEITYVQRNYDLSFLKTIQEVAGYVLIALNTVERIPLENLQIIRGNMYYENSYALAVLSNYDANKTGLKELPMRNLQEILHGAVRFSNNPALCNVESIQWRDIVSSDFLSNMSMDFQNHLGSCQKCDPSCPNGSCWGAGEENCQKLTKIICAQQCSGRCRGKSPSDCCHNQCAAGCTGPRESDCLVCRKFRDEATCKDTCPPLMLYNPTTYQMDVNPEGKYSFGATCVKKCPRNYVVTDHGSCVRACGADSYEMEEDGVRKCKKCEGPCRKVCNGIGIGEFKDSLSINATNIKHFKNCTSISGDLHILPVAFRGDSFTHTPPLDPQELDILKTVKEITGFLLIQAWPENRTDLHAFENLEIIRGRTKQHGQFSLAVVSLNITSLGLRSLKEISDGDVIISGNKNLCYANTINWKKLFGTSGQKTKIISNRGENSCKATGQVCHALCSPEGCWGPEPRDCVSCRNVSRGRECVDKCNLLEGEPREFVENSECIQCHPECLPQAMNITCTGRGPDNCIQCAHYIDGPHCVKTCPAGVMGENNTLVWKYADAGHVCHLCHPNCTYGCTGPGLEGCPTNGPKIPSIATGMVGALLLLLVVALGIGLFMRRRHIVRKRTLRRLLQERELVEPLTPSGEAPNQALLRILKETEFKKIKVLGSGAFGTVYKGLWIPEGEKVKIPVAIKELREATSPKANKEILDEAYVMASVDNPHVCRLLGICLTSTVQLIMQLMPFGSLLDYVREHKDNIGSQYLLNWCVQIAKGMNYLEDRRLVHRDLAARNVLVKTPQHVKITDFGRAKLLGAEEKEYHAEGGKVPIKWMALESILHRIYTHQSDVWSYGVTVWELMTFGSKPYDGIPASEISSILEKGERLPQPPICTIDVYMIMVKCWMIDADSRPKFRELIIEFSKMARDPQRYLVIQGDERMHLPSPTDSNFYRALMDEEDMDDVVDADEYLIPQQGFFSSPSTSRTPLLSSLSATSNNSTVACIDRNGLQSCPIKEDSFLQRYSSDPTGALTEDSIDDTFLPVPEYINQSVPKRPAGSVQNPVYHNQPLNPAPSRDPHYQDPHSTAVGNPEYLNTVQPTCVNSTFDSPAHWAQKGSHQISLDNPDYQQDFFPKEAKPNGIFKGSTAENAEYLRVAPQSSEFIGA

For the compound `CCOc1cc(N2CCC(N3CCN(CCc4c(C)ccc5c4oc(=O)n5C4CCC(=O)NC4=O)CC3)CC2)c(CC)cc1Nc1ncc(Br)c(Nc2ccc3nc(CC)ccc3c2P(C)(C)=O)n1` (stereo not shown) [Example 634, 3-(7-(2-(4-(1-(4-((5-bromo-4-((5-(dimethylphosphoryl)-2-ethylquinolin-6-yl)amino)pyrimidin-2-yl)amino)-5-ethoxy-2-ethylphenyl)piperidin-4-yl)piperazin-1-yl)ethyl)-6-methyl-2-oxobenzo[d]oxazol-3(2H)-yl)piperidine-2,6-dione], the DC50 (usually the concentration giving 50% degradation) in test [1] (setting [3]) was determined as 4.47 nM; in test [2] (setting [5]), 0.985 nM. Moreover, the Dmax (usually the largest share of the target that was removed) in test [1] (setting [4]) was found to be 88%. For the same compound, in test [2] (setting [6]), the “Dmax (%) H1975 # 28 DTC” value was found to be 81.71%.
The matching figures for `CCc1cc(Nc2ncc(Br)c(Nc3ccc4c(c3P(C)(C)=O)OCCO4)n2)c(OC)cc1N1CCC(N2CCN(C(=O)[C@@H]3CCN(c4cc(F)c([C@H]5CCC(=O)NC5=O)c(F)c4)C3)CC2)CC1` [Example 686, (R)-3-(4-((R)-3-(4-(1-(4-((5-bromo-4-((5-(dimethylphosphoryl)-2,3-dihydrobenzo[b][1,4]dioxin-6-yl)amino)pyrimidin-2-yl)amino)-2-ethyl-5-methoxyphenyl)piperidin-4-yl)piperazine-1-carbonyl)pyrrolidin-1-yl)-2,6-difluorophenyl)piperidine-2,6-dione]: 4.89 nM, 1.76 nM, 96.6% and 88.73%.
For `CCOc1cc(N2CCC(N3CCN(CCc4cc5oc(=O)n(C6CCC(=O)NC6=O)c5cc4C(F)(F)F)CC3)CC2)c(CC)cc1Nc1ncc(Br)c(Nc2ccc3nc(CC)ccc3c2P(C)(C)=O)n1` (stereo not shown) [Example 616, 3-(6-(2-(4-(1-(4-((5-bromo-4-((5-(dimethylphosphoryl)-2-ethylquinolin-6-yl)amino)pyrimidin-2-yl)amino)-5-ethoxy-2-ethylphenyl)piperidin-4-yl)piperazin-1-yl)ethyl)-2-oxo-5-(trifluoromethyl)benzo[d]oxazol-3(2H)-yl)piperidine-2,6-dione] the same measures were 43.1 nM, 5.75 nM, 83.8% and 70.93%.
On to `CCc1ccc2c(P(C)(C)=O)c(Nc3nc(Nc4cc(CC)c(N5CCC(N6CCN(CCc7cc(F)cc8c7oc(=O)n8C7CCC(=O)NC7=O)CC6)CC5)cc4OC)ncc3Br)ccc2n1` (stereo not shown) [Example 443, 3-(7-(2-(4-(1-(4-((5-bromo-4-((5-(dimethylphosphoryl)-2-ethylquinolin-6-yl)amino)pyrimidin-2-yl)amino)-2-ethyl-5-methoxyphenyl)piperidin-4-yl)piperazin-1-yl)ethyl)-5-fluoro-2-oxobenzo[d]oxazol-3(2H)-yl)piperidine-2,6-dione], for which the DC50 is 14.6 nM in test [1] (setting [3]) and 0.894 nM in test [2] (setting [5]). Further, the Dmax in test [1] (setting [4]) stood at 81.4%. In addition, the “Dmax (%) H1975 # 28 DTC” value in test [2] (setting [6]) amounted to 82.38%.
For `CCOc1cc(N2CCC(N3CCN(CCc4cc5oc(=O)n(C6CCC(=O)NC6=O)c5cc4Cl)CC3)CC2)c(CC)cc1Nc1ncc(Br)c(Nc2ccc3nc(CC)ccc3c2P(C)(C)=O)n1` (stereo not shown) [Example 627, 3-(6-(2-(4-(1-(4-((5-bromo-4-((5-(dimethylphosphoryl)-2-ethylquinolin-6-yl)amino)pyrimidin-2-yl)amino)-5-ethoxy-2-ethylphenyl)piperidin-4-yl)piperazin-1-yl)ethyl)-5-chloro-2-oxobenzo[d]oxazol-3(2H)-yl)piperidine-2,6-dione], the DC50 in test [1] (setting [3]) is 9.13 nM; in test [2] (setting [5]), 1.23 nM. For the same compound, in test [1] (setting [4]), the Dmax is 94.5%. In test [2] (setting [6]), the “Dmax (%) H1975 # 28 DTC” value stood at 76.26%.
Turning to `CCOc1cc(N2CCC(N3CCN(CCc4cc5oc(=O)n(C6CCC(=O)NC6=O)c5cc4F)CC3)CC2)c(CC)cc1Nc1ncc(Br)c(Nc2ccc3nc(CC)ncc3c2P(C)(C)=O)n1` (stereo not shown) [Example 565, 3-(6-(2-(4-(1-(4-((5-bromo-4-((5-(dimethylphosphoryl)-2-ethylquinazolin-6-yl)amino)pyrimidin-2-yl)amino)-5-ethoxy-2-ethylphenyl)piperidin-4-yl)piperazin-1-yl)ethyl)-5-fluoro-2-oxobenzo[d]oxazol-3(2H)-yl)piperidine-2,6-dione], the DC50 in test [1] (read-out: DC50(nM) BaF3-LTC; BaF3-LTC cells; EGFR degradation, IC50 (DC50) from curve fit) stood at 3.92 nM; in test [2] (read-out: DC50(nM) H1975 # 28 DTC; H1975 # 28 DTC cells; EGFR degradation, IC50 (DC50) from curve fit), 0.626 nM. In test [1] (read-out: Dmax (%) BaF3-LTC, BaF3-LTC cells; maximum percentage of inhibition (degradation)), the Dmax was 93.2%. Also, the “Dmax (%) H1975 # 28 DTC” value in test [2] (setting [6]) was determined as 74.32%.
With `CCOc1cc(N2CCC(N3CCN(C(=O)[C@@H]4CCN(c5cc(F)c([C@H]6CCC(=O)NC6=O)c(F)c5)C4)CC3)CC2)c(C)cc1Nc1ncc(Br)c(Nc2ccc3c(=O)n(C)ncc3c2P(C)(C)=O)n1` [Example 529, (R)-3-(4-((R)-3-(4-(1-(4-((5-bromo-4-((5-(dimethylphosphoryl)-2-methyl-1-oxo-1,2-dihydrophthalazin-6-yl)amino)pyrimidin-2-yl)amino)-5-ethoxy-2-methylphenyl)piperidin-4-yl)piperazine-1-carbonyl)pyrrolidin-1-yl)-2,6-difluorophenyl)piperidine-2,6-dione], the DC50 came out at 5.8 nM in test [1] (setting [3]) and 1.03 nM in test [2] (setting [5]). For the same compound, the Dmax in test [1] (setting [4]) is 91.9%. Besides, the “Dmax (%) H1975 # 28 DTC” value in test [2] (setting [6]) stood at 85.06%.
For the compound `CCOc1cc(N2CCC(N3CCN(CCc4cc(F)cc5c4oc(=O)n5C4CCC(=O)NC4=O)CC3)CC2)c(CC)cc1Nc1ncc(Br)c(Nc2ccc3nc(CC)ccc3c2P(C)(C)=O)n1` (stereo not shown) [Example 472, 3-(7-(2-(4-(1-(4-((5-bromo-4-((5-(dimethylphosphoryl)-2-ethylquinolin-6-yl)amino)pyrimidin-2-yl)amino)-5-ethoxy-2-ethylphenyl)piperidin-4-yl)piperazin-1-yl)ethyl)-5-fluoro-2-oxobenzo[d]oxazol-3(2H)-yl)piperidine-2,6-dione], the DC50 is 19.6 nM in test [1] (setting [3]) and 0.945 nM in test [2] (setting [5]). Further, the Dmax in test [1] (setting [4]) was 86.9%. The “Dmax (%) H1975 # 28 DTC” value in test [2] (setting [6]) is listed as 80.01%.
Regarding `CCOc1cc(N2CCC(N3CCN(CCc4cccc5c4C(C)(C)C(=O)N5C4CCC(=O)NC4=O)[C@H](CO)C3)CC2)c(CC)cc1Nc1ncc(Br)c(Nc2ccc3c(=O)n(CC)ncc3c2P(C)(C)=O)n1` (stereo partly drawn) [Example 641, 3-(4-(2-((S)-4-(1-(4-((5-bromo-4-((5-(dimethylphosphoryl)-2-ethyl-1-oxo-1,2-dihydrophthalazin-6-yl)amino)pyrimidin-2-yl)amino)-5-ethoxy-2-ethylphenyl)piperidin-4-yl)-2-(hydroxymethyl)piperazin-1-yl)ethyl)-3,3-dimethyl-2-oxoindolin-1-yl)piperidine-2,6-dione], the DC50 amounted to 7.79 nM in test [1] (setting [3]) and 0.666 nM in test [2] (setting [5]). Further, in test [1] (setting [4]), the Dmax was determined as 96.1%. In test [2] (setting [6]), the “Dmax (%) H1975 # 28 DTC” value was found to be 76.33%.
Take `CCc1ccc2c(P(C)(C)=O)c(Nc3nc(Nc4cc(CC)c(N5CCC(N6CCN(C[C@H]7C[C@H](N(C)c8cc(F)c(C9CCC(=O)NC9=O)c(F)c8)C7)CC6)CC5)cc4OC)ncc3Br)ccc2n1` (stereo partly shown) [Example 691, 3-(4-(((1r,3r)-3-((4-(1-(4-((5-bromo-4-((5-(dimethylphosphoryl)-2-ethylquinolin-6-yl)amino)pyrimidin-2-yl)amino)-2-ethyl-5-methoxyphenyl)piperidin-4-yl)piperazin-1-yl)methyl)cyclobutyl)(methyl)amino)-2,6-difluorophenyl)piperidine-2,6-dione]: the DC50 in test [1] (setting [3]) was 24.6 nM; in test [2] (setting [5]) it was 3.3 nM. Moreover, in test [1] (setting [4]), the Dmax came to 93.4%. The “Dmax (%) H1975 # 28 DTC” value in test [2] (setting [6]) was 71.66%.
